This is an account of results in US11478478B2, “2,3-disubstituted 1-acyl-4-amino-1,2,3,4-tetrahydroquinoline derivatives and their use as bromodomain inhibitors” (GLAXOSMITHKLINE INTELLECTUAL PROPERTY (NO.2) LIMITED, priority 2013, dated 2022).

Where a name gives a salt, the structure may show the parent alone.

The test addresses T1, BRD4 BD2 (Homo sapiens, UniProt O60885, Y97A).
T1 construct: BRD4 (1-477) (Y97A) and (Y390A); made in house; host or cells: E. coli (pET15b vector)
The test is described as follows: TR-FRET binding assay, BRD4 BD2 (BD1-mutated protein). The settings on record: read-out: pIC50 in the BRD4 BD2 assay (converted). The protocol: Time Resolved Fluorescence Resonance Energy Transfer (TR-FRET) Assay Binding was assessed using a time resolved fluorescent resonance energy transfer binding assay. This utilises a 6 His purification tag at the N-terminal of the proteins as an epitope for an anti-6 His antibody labeled with Europium chelate (PerkinElmer AD0111) allowing binding of the Europium to the proteins which acts as the donor fluorophore. A small molecule, high affinity binder of the bromodomains BRD2, BRD3, BRD4 and BRDT has been labeled with Alexa Fluor647 (Reference Compound X) and this acts as the acceptor in the FRET pair.
In the absence of a competing compound, excitation of the Europium causes the donor to emit at λ618 nm which excites the Alexa labelled bromodomain binding compound leading to an increased energy transfer that is measurable at λ647 nM. In the presence of a sufficient concentration of a compound that can bind these proteins, the interaction is disrupted leading to a quantifiable drop in fluorescent resonance energy transfer.
The binding of the compounds of formula (I) to Bromodomains BRD2, BRD3, BRD4 and BRDT was assessed using mutated proteins to detect differential binding to either Binding Domain 1 (BD1) or Binding Domain 2 (BD2) on the bromodomain. These single residue mutations in the acetyl lysine binding pocket greatly lower the affinity of the fluoroligand (Reference Compound X) for the mutated domain (>1000 fold selective for the non-mutated domain). Therefore in the final assay conditions, binding of the fluoroligand to the mutated domain cannot be detected and subsequently the assay is suitable to determine the binding of compounds to the single non-mutated bromodomain.
Recombinant Human Bromodomains [(BRD2 (1-473) (Y113A) and (Y386A), BRD3 (1-435) (Y73A) and (Y348A) BRD4 (1-477) (Y97A) and (Y390A) and BRDT (1-397) (Y66A) and (Y309A)] were expressed in E. coli cells (in pET15b vector for BRD2/3/4 and in pET28a vector for BRDT) with a 6-His tag at the N-terminal. The His-tagged Bromodomain pellet was resuspended in 50 mM HEPES (pH7.5), 300 mM NaCl, 10 mM imidazole & 1 μl/ml protease inhibitor cocktail and extracted from the E. coli cells using sonication and purified using a nickel sepharose high performance column, the proteins were washed and then eluted with a linear gradient of 0-500 mM imidazole with buffer 50 mM HEPES (pH7.5), 150 mM NaCl, 500 mM imidazole, over 20 column volumes. Final purification was completed by Superdex 200 prep grade size exclusion column. Purified protein was stored at −80° C. in 20 mM HEPES pH 7.5 and 100 mM NaCl. Protein identity was confirmed by peptide mass fingerprinting and predicted molecular weight confirmed by mass spectrometry.
All assay components were dissolved in buffer composition of 50 mM HEPES pH7.4, 50 mM NaCl, 5% Glycerol, 1 mM DTT and 1 mM CHAPS. The final concentration of bromodomain proteins were 10 nM and the Alexa Fluor647 ligand was at Kd. These components were premixed and 5 μl of this reaction mixture was added to all wells containing 50 nl of various concentrations of test compound or DMSO vehicle (0.5% DMSO final) in Greiner 384 well black low volume microtitre plates and incubated in dark for 30 minutes at rt. 5 μl of detection mixture containing 1.5 nM final concentration anti-6His Europium chelate was added to all wells and a further dark incubation of at least 30 minutes was performed. Plates were then read on the Envision platereader, (λex=317 nm, donor λem=615 nm; acceptor λem=665 nm; Dichroic LANCE dual). Time resolved fluorescent intensity measurements were made at both emission wavelengths and the ratio of acceptor/donor was calculated and used for data analysis. All data was normalized to the mean of 16 high (inhibitor control—Example 11 of WO 2011/054846A1) and 16 low (DMSO) control wells on each plate. A four parameter curve fit of the following form was then applied: y=a+((b−a)/(1+(10^/10^)^d) […]
(In TR-FRET formats the signal depends on donor and acceptor labels being close together.)
`CC(=O)N1c2ccc(N3CCC(C)C3)cc2[C@H](Nc2ccccc2)[C@@H](C)[C@@H]1C` (mixture of isomers) [Example 80, 1-((rac-2S,3R,4R)-2,3-dimethyl-6-(3-methylpyrrolidin-1-yl)-4-(phenylamino)-3,4-dihydroquinolin-1(2H)-yl)ethanone]: the IC50 is 100 nM.

Regarding `CC(=O)N1c2ccc(N3CCCC3C)cc2[C@H](Nc2ccccc2)[C@@H](C)[C@@H]1C` (mixture of isomers) [Example 81, 1-((rac-2S,3R,4R)-2,3-dimethyl-6-(2-methylpyrrolidin-1-yl)-4-(phenylamino)-3,4-dihydroquinolin-1(2H)-yl)ethanone], the IC50 was 100 nM.

On to `CC(=O)N1c2ccc(C3=CCOCC3)cc2[C@H](Nc2cccc(C)n2)[C@@H](C)[C@@H]1C1CC1` (racemic) [Example 85, rac-1-((2S,3R,4R)-2-cyclopropyl-6-(3,6-dihydro-2H-pyran-4-yl)-3-methyl-4-((6-methylpyridin-2-yl)amino)-3,4-dihydroquinolin-1(2H)-yl)ethanone, formic acid salt], for which the IC50 is 100 nM.

As for `CC(=O)N1c2ccc(C3=CCNCC3)cc2[C@H](Nc2cccc(C)n2)[C@@H](C)[C@@H]1C1CC1` (racemic) [Example 87, rac-1-((2S,3R,4R)-2-cyclopropyl-3-methyl-4-((6-methylpyridin-2-yl)amino)-6-(1,2,3,6-tetrahydropyridin-4-yl)-3,4-dihydroquinolin-1(2H)-yl)ethanone], the IC50 was 100 nM.

As to `CC(=O)N1c2ccc(C3=CCOCC3)cc2[C@@H](Nc2ccccn2)[C@H](C)[C@H]1C1CC1` (racemic) [Example 92, rac-1-((2S,3R,4R)-2-cyclopropyl-6-(3,6-dihydro-2H-pyran-4-yl)-3-methyl-4-(pyridin-2-ylamino)-3,4-dihydroquinolin-1(2H)-yl)ethanone], the IC50 was 100 nM.

In the case of `CC(=O)N1c2ccc(N3CCNCC3)cc2[C@H](Nc2ccccc2)[C@@H](C)[C@@H]1C1CC1` (racemic) [Example 94, rac-1-((2S,3R,4R)-2-cyclopropyl-3-methyl-4-(phenylamino)-6-(piperazin-1-yl)-3,4-dihydroquinolin-1(2H)-yl)ethanone, hydrochloride], the IC50 is 100 nM.

`CC(=O)N1c2ccc(N3CCNC(C)C3)nc2[C@H](Nc2ccccc2)[C@@H](C)[C@@H]1C1CC1` (mixture of isomers) [Example 107, 1-((rac-2S,3R,4R)-2-cyclopropyyl-3-methyl-6-(3-methylpiperazin-1-yl)-4-(phenylamino)-3,4-dihydro-1,5-naphthyridin-1(2H)-yl)ethanone]: the IC50 is 1000 to 100000 nM.

Take `CC(=O)N1c2ccc(N3CCNCC3)nc2[C@H](Nc2ccccc2)[C@@H](C)[C@@H]1C1CC1` (racemic) [Example 108, rac-1-((2S,3R,4R)-2-cyclopropyl-3-methyl-4-(phenylamino)-6-(piperazin-1-yl)-3,4-dihydro-1,5-naphthyridin-1(2H)-yl)ethanone]: the IC50 was 1000 to 100000 nM.

Take `CC(=O)N1c2ccc(N3CCC(N)CC3)nc2[C@H](Nc2ccccc2)[C@@H](C)[C@@H]1C1CC1` (racemic) [Example 109, rac-1-((2S,3R,4R)-6-(4-aminopiperidin-1-yl)-2-cyclopropyl-3-methyl-4-(phenylamino)-3,4-dihydro-1,5-naphthyridin-1(2H)-yl)ethanone]: the IC50 was 1000 to 100000 nM.

Regarding `CC(=O)N1c2ccc(N3CCOCC3)nc2[C@H](Nc2ccccc2)[C@@H](C)[C@@H]1C1CC1` (racemic) [Example 110, rac-1-((2S,3R,4R)-2-cyclopropyl-3-methyl-6-morpholino-4-(phenylamino)-3,4-dihydro-1,5-naphthyridin-1(2H)-yl)ethanone], the IC50 is 1000 to 100000 nM.

As for `COc1ccc2c(n1)[C@H](Nc1cccc(C)n1)[C@@H](C)[C@H](C1CC1)N2C(C)=O` (racemic) [Example 111, rac-1-((2S,3R,4R)-2-cyclopropyl-6-methoxy-3-methyl-4-((6-methylpyridin-2-yl)amino)-3,4-dihydro-1,5-naphthyridin-1(2H)-yl)ethanone], the IC50 is 1000 to 100000 nM.

Take `CC(=O)N1c2ccc(O)nc2[C@H](Nc2cccc(C)n2)[C@@H](C)[C@@H]1C1CC1` (racemic) [Example 112, rac-1-((2S,3R,4R)-2-cyclopropyl-6-hydroxy-3-methyl-4-((6-methylpyridin-2-yl)amino)-3,4-dihydro-1,5-naphthyridin-1(2H)-yl)ethanone]: the IC50 was 1000 to 100000 nM.

As to `CC(=O)N1c2cccnc2[C@H](Nc2cccc(C)n2)[C@@H](C)[C@@H]1C1CC1` (racemic) [Example 113, rac-1-((2S,3R,4R)-2-cyclopropyl-3-methyl-4-((6-methylpyridin-2-yl)amino)-3,4-dihydro-1,5-naphthyridin-1(2H)-yl)ethanone], the IC50 is 1000 to 100000 nM.

Take `CC(=O)N1c2cnccc2[C@H](Nc2ccccc2)[C@@H](C)[C@@H]1C` (racemic) [Example 115, rac-1-((2S,3R,4R)-2,3-dimethyl-4-(phenylamino)-3,4-dihydro-1,7-naphthyridin-1(2H)-yl)ethanone formate]: the IC50 is 100 nM.

In the case of `CC(=O)N1c2ccccc2[C@H](Oc2ccccc2)[C@@H](C)[C@@H]1C1CC1` (racemic) [Example 119, rac-1-((2S,3S,4R)-2-cyclopropyl-3-methyl-4-phenoxy-3,4-dihydroquinolin-1(2H)-yl)ethanone], the IC50 was 100 nM.

Take `CC(=O)N1c2ccccc2[C@H](Nc2cccc(CN)c2)[C@@H](C)[C@@H]1C1CC1` (racemic) [Example 124, rac-1-((2S,3R,4R)-4-((3-(aminomethyl)phenyl)amino)-2-cyclopropyl-3-methyl-3,4-dihydroquinolin-1(2H)-yl)ethanone, hydrochloride]: the IC50 was 100 nM.

As for `CC(=O)N1c2ccccc2[C@H](Nc2ccc(C(=O)O)cc2)[C@@H](C)[C@@H]1C1CC1` (racemic) [Example 127, rac-4-(((2S,3R,4R)-1-acetyl-2-cyclopropyl-3-methyl-1,2,3,4-tetrahydroquinolin-4-yl)amino)benzoic acid], the IC50 is 1000 to 100000 nM.

Regarding `CNCCn1cc(-c2ccc3c(c2)[C@H](Nc2ccc(C#N)cc2)[C@@H](C)[C@H](C2CC2)N3C(C)=O)cn1` (racemic) [Example 134, rac-4-(((2S,3R,4R)-1-acetyl-2-cyclopropyl-3-methyl-6-(1-(2-(methylamino)ethyl)-1H-pyrazol-4-yl)-1,2,3,4-tetrahydroquinolin-4-yl)amino)benzonitrile], the IC50 is 100 nM.

For the molecule `CC(=O)N1c2ccc(F)cc2[C@H](Nc2ccc(C#N)cc2)[C@@H](C)[C@@H]1C` (racemic) [Example 139, rac-4-(((2S,3R,4R)-1-acetyl-6-fluoro-2,3-dimethyl-1,2,3,4-tetrahydroquinolin-4-yl)amino)benzonitrile], the IC50 is 100 nM.

For the molecule `CC(=O)N1c2ccc(F)cc2[C@H](Nc2ccc(F)cn2)[C@@H](C)[C@@H]1C` (racemic) [Example 141, rac-1-((2S,3R,4R)-6-fluoro-4-((5-fluoropyridin-2-yl)amino)-2,3-dimethyl-3,4-dihydroquinolin-1(2H)-yl)ethanone], the IC50 is 100 nM.

With `CC(=O)N1c2ccc(F)cc2[C@H](Nc2ccc(C#N)cn2)[C@@H](C)[C@@H]1C` (racemic) [Example 143, rac-6-(((2S,3R,4R)-1-acetyl-6-fluoro-2,3-dimethyl-1,2,3,4-tetrahydroquinolin-4-yl)amino)nicotinonitrile], the IC50 is 100 nM.
